Data published in patent US11331314B2, “Amine substituted triazole derivatives and uses thereof” (Bayer Pharma Aktiengesellschaft, priority 2017, dated 2022).

Legend:
[1] = target: human V1a receptor (Homo sapiens, UniProt P37288); experiment: Cellular in vitro assay for determining vasopressin receptor activity, V1a receptor cell line (photoprotein luminescence); assay type: cell-based; settings: for IC50: CHO cell line transfected with the human V1a receptor, agonist [Arg8]-vasopressin at EC50 concentration, read-out: IC50 hV1a; for ratio IC50 hV2/hV1a: selectivity ratio of the cellular IC50 values
In short: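 CHO K1 cells stably expressing human V1a receptor with aequorin photoprotein, loaded overnight with coelenterazine. Compounds preincubated 10 min at various concentrations, then challenged with [Arg^8]-vasopressin at EC50 concentration. Calcium-driven luminescence read immediately; IC50 values derived.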

[2] = target: T1, human V2 receptor (Homo sapiens, UniProt P30518); experiment: Cellular in vitro assay for determining vasopressin receptor activity, V2 receptor cell line (CRE-luciferase); assay type: cell-based; settings: CHO cell line transfected with the human V2 receptor; agonist [Arg8]-vasopressin at EC50 concentration; read-out: IC50 hV2
T1 construct: expressed in transfected cells; host or cells: CHO K1 (ATCC) expressing firefly luciferase under a CRE-responsive promoter
T1 sequence (P30518 whole entry): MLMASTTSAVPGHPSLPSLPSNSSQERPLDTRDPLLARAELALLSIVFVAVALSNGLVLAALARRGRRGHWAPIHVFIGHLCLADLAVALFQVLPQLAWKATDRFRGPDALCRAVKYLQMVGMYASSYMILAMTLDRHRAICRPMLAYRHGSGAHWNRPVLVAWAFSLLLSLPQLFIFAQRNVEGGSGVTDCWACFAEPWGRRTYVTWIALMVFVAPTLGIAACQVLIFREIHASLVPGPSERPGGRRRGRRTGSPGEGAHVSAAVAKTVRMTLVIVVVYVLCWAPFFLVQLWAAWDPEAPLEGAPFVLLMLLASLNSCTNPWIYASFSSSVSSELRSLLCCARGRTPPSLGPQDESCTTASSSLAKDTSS

human V1a receptor, sequence (P37288 whole entry): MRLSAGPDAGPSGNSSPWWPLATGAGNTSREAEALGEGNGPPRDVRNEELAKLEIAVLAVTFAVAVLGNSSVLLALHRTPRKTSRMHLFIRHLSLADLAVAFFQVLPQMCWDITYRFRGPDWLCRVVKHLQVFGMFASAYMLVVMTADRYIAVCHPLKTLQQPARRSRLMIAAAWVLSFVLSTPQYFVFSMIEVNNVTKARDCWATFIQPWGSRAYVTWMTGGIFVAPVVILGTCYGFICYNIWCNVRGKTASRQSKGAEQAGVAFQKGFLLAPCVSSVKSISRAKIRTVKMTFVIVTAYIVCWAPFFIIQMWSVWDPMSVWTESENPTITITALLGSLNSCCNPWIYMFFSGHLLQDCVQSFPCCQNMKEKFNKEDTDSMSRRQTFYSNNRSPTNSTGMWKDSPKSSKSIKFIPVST

Row | SMILES | IC50 [1] | ratio IC50 hV2/hV1a [1] | IC50 [2]
1 | CC(C)(N)CNc1nc(Cn2nc(-c3ccc(Cl)cc3)n(C[C@H](O)C(F)(F)F)c2=O)nn1-c1ccccc1 [Example 94, 2-({5-[(2-Amino-2-methylpropyl)amino]-1-phenyl-1H-1,2,4-triazol-3-yl}methyl)-5-(4-chlorophenyl)-4-[(2S)-3,3,3-trifluoro-2-hydroxypropyl]-2,4-dihydro-3H-1,2,4-triazol-3-one] | 4.3 nM | 22.2 | 95.5 nM
2 | O=C1CCCN1CCNc1nc(Cn2nc(-c3ccc(Cl)cc3)n(C[C@H](O)C(F)(F)F)c2=O)nn1-c1ccccc1Cl [Example 45, 5-(4-Chlorophenyl)-2-{[1-(2-chlorophenyl)-5-{[2-(2-oxopyrrolidin-1-yl)ethyl]amino}-1H-1,2,4-triazol-3-yl]methyl}-4-[(2S)-3,3,3-trifluoro-2-hydroxypropyl]-2,4-dihydro-3H-1,2,4-triazol-3-one] | 2.45 nM | 5.3 | 13 nM
3 | NC(=O)[C@H]1CCN(c2nc(Cn3nc(-c4ccc(Cl)cc4)n(C[C@H](O)C(F)(F)F)c3=O)nn2-c2ccccc2Cl)C1 [Example 57, (3S)-1-[1-(2-Chlorophenyl)-3-({3-(4-chlorophenyl)-5-oxo-4-[(2S)-3,3,3-trifluoro-2-hydroxypropyl]-4,5-dihydro-1H-1,2,4-triazol-1-yl}methyl)-1H-1,2,4-triazol-5-yl]pyrrolidine-3-carboxamide] | 0.74 nM | 6.6 | 4.9 nM
4 | CC(C)(N)CNc1nc(Cn2nc(-c3ccc(Cl)cc3)n(C[C@H](O)C(F)(F)F)c2=O)nn1-c1ccccc1F [Example 91, 2-({5-[(2-Amino-2-methylpropyl)amino]-1-(2-fluorophenyl)-1H-1,2,4-triazol-3-yl}methyl)-5-(4-chlorophenyl)-4-[(2S)-3,3,3-trifluoro-2-hydroxypropyl]-2,4-dihydro-3H-1,2,4-triazol-3-one] | 1.15 nM | 91.7 | 105 nM
5 | O=c1n(Cc2nc(N3CCNC(C(F)(F)F)C3)n(-c3ccccc3Cl)n2)nc(-c2ccc(Cl)cc2)n1C[C@H](O)C(F)(F)F (single isomer, unassigned) [Example 68] | 0.45 nM | 30.3 | 13.5 nM
6 | O=C1CN(c2nc(Cn3nc(-c4ccc(Cl)cc4)n(C[C@H](O)C(F)(F)F)c3=O)nn2-c2ccccc2F)CCN1 [Example 89, 4-[3-({3-(4-Chlorophenyl)-5-oxo-4-[(2S)-3,3,3-trifluoro-2-hydroxypropyl]-4,5-dihydro-1H-1,2,4-triazol-1-yl}methyl)-1-(2-fluorophenyl)-1H-1,2,4-triazol-5-yl]piperazin-2-one] | 5.45 nM | 14.8 | 80.5 nM
7 | CC(C)(N)CNc1nc(Cn2nc(-c3ccc(Cl)cc3)n(C[C@H](O)C(F)(F)F)c2=O)nn1-c1ncccc1Cl [Example 95, 2-({5-[(2-Amino-2-methylpropyl)amino]-1-(3-chloropyridin-2-yl)-1H-1,2,4-triazol-3-yl}methyl)-5-(4-chlorophenyl)-4-[(2S)-3,3,3-trifluoro-2-hydroxypropyl]-2,4-dihydro-3H-1,2,4-triazol-3-one] | 0.86 nM | 845.9 | 727 nM
8 | O=c1n(Cc2nc(N3CCC(O)(C(F)(F)F)C3)n(-c3ccccc3Cl)n2)nc(-c2ccc(Cl)cc2)n1C[C@H](O)C(F)(F)F (single isomer, unassigned) [Example 14] | 0.96 nM | 6.1 | 5.85 nM
9 | O=c1n(Cc2nc(N3CCS(=O)(=O)CC3)n(CCC(F)(F)F)n2)nc(-c2ccc(Cl)cc2)n1C[C@H](O)C(F)(F)F [Example 100, 5-(4-Chlorophenyl)-2-{[5-(1,1-dioxidothiomorpholin-4-yl)-1-(3,3,3-trifluoropropyl)-1H-1,2,4-triazol-3-yl]methyl}-4-[(2S)-3,3,3-trifluoro-2-hydroxypropyl]-2,4-dihydro-3H-1,2,4-triazol-3-one] | 330 nM | 11.5 | 3800 nM
10 | O=C1NCCC1Nc1nc(Cn2nc(-c3ccc(Cl)cc3)n(C[C@H](O)C(F)(F)F)c2=O)nn1-c1ccccc1Cl (single isomer, unassigned) [Example 18] | 0.81 nM | 1.7 | 1.35 nM
11 | O=C1CC(Nc2nc(Cn3nc(-c4ccc(Cl)cc4)n(C[C@H](O)C(F)(F)F)c3=O)nn2-c2ccccc2Cl)CN1 (mixture of isomers) [Example 69, 5-(4-Chlorophenyl)-2-{[1-(2-chlorophenyl)-5-{[5-oxopyrrolidin-3-yl]amino}-1H-1,2,4-triazol-3-yl]methyl}-4-[(2S)-3,3,3-trifluoro-2-hydroxypropyl]-2,4-dihydro-3H-1,2,4-triazol-3-one] | 1.05 nM | 4.2 | 4.35 nM
